Measured values from patent publication US8921323B2, “Methods and compositions for modulating BCL-2 family polypeptides” (Dana Farber Cancer Institute, Inc., priority 2007, dated 2014).
Ends that are not written are not given here.

How the values were obtained:
[1] = test system: Pfeiffer lymphoma cell line which overexpresses MCL-1 and A1; experiment: killing of Pfeiffer lymphoma cell line; format: cell-based
[2] = test system: Bax−/−Bak−/− mouse embryo fibroblasts reconstituted with BAXK21E; experiment: apoptosis of BAXK21E-reconstituted DKO MEFs (annexin-V binding); format: cell-based; conditions: compared with wild-type BAX
Description: (§1) To determine if this single point mutation within the novel BAX binding site impacted the capacity to activate BAX in a cellular context, we retrovirally reconstituted Bax^−/−Bak^−/− mouse embryo fibroblasts (DKO MEFs) with either wild type or BAXK21E and monitored apoptosis induction in response to BIM SAHB. […] This decrease in BAXK21E-mediated apoptosis correlates with impaired activation of […] by BIM SAHB in both oligomerization and cytochrome c release assays (FIG. 15a, 15b).
To probe the broader physiologic impact of the novel BAX activation site, we examined the apoptotic response of DKO MEFs reconstituted with BAX and BAXK21E to staurosporine (STS), a general stimulus known to operate through endogenous BH3-only proteins, including BIM. K21E mutagenesis impaired STS-induced apoptosis, as monitored by annexin V binding over time (FIG. 15d). The reduced activity of BAXK21E was also reflected by impaired cytochrome c release, as detected by subcellular fractionation Western analysis and indirect immunofluorescence. The blunted response of BAXK21E-reconstituted DKO MEFs to STS is uniformly consistent with impaired activation of BAXK21E by BIM SAHB in oligomerization (FIG. 15a), cytochrome c release (FIG. 15b), and cell-based apoptosis assays (FIG. 15c). […]

[3] = test system: MCL-1 overexpressing or otherwise chemoresistant cancer cells; experiment: reactivating apoptosis of MCL-1 overexpressing or chemoresistant cancer cells; format: cell-based
Description: Many cancer cells and their relapsed/chemoresistant variants achieve cellular immortality by massively overexpressing anti-apoptotic members of the BCL-2 family. Using BH3 mimetics and small molecules, anti-apoptotic inhibition is one mode of overcoming apoptotic blockade. However, when BH3 mimetics or small molecules have a specificity profile that cannot target a specific anti-apoptotic blockade, such as MCL-1 overexpression (Van Delft et al, Cancer Cell. 2006 Nov.; 10(5):389-99; Konopleva et al, Cancer Cell. 2006 Nov.; 10(5):375-88; Deng et al Cancer Cell. 2007 Aug.; 12(2):171-85), direct BAX modulation can circumvent, or synergize with, such apoptotic blockade for therapeutic benefit. […] Therefore, cancers or other diseased cells that either overexpress anti-apoptotic proteins such as MCL-1 and A1, or cancers or diseased cells that specifically down-regulate activator BH3-only proteins, like BIM, such as in Mantle Cell lymphoma (Tagawa et al Oncogene. 2005 Feb. 17; 24(8):1348-58; Mestre-Escorihuela, Blood. 2007 Jan. 1; 109(1):271-80) and cf. with mouse model of BIM-deletion, are ideally suited for BIM SAHB, or derivatives and mimetics thereof, to reactivate apoptosis through direct engagement of the novel BAX activation site and thereby induce apoptosis for therapeutic purposes and irrespective of the aforementioned apoptotic blockades.

[4] = biological target: T1, BCL-2-related ovarian killer (BOK) (Homo sapiens, UniProt Q9UMX3); experiment: binding of SAHB ligands to BOK
T1 sequence (Q9UMX3 1-212): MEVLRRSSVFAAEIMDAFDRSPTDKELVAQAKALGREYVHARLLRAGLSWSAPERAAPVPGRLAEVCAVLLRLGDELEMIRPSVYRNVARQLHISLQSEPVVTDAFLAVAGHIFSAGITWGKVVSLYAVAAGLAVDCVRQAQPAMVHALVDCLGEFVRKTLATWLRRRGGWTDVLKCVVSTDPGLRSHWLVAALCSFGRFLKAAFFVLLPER

BAX = BAX (Homo sapiens, UniProt Q07812); experiment: liposomal release assay (FITC-dextran); format: biochemical; conditions: combination with BAX
BAX, sequence (Q07812 whole entry): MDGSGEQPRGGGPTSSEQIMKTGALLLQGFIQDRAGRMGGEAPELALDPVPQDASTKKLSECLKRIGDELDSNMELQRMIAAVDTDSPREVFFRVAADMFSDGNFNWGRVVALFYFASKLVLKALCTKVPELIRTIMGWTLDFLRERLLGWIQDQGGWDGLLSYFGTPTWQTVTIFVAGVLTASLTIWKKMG
Description: (§2) To confirm that the SEC-based detection of BIM SAHB-induced BAX oligomerization reflects functional activation of BAX for its release activity, we performed correlative liposomal and mitochondrial assays. […] Thus, in four distinct in vitro assays that measure ligand-induced BAX activation, BIM SAHB directly and dose-responsively triggered BAX.
Liposomal Release Assay: Another assay that can be used to determine modulation of the BCL-2 family polypeptide is a liposomal release assay that simulates the mitochondria but only includes the essential components for BAX/BAK/BOK-induced release. […] Lipid concentration is determined by measuring vesicular phosphate content (Böttcher, C. J. F. et al. (1961) Anal Chim Acta 24, 203-204). The fluorescence dequenching assay is adapted from previous reports (Kuwana, T. et al. (2002) Cell 111(3), 331-342) (Terrones, O., et al. (2004) J Biol Chem 279(29), 30081-30091). The release of FITC-labeled dextran-10 kD from LUVs is monitored using a FluoroMax-2 spectrofluorometer (SPEX), in a thermostated 1 cm path length quartz cuvette with constant stirring at 37° C. […]

[5] = test system: BAX-mediated cytochrome c release, BAX/BAK doubly-deficient mouse liver mitochondria; experiment: mitochondrial cytochrome c release assay; format: biochemical; conditions: Alb-cre pos Bax flox/− Bak−/− mouse liver mitochondria plus BAX
Description: as §2
Mitochondrial Release Assay: In order to test activation/inhibition of a BCL-2 family polypeptide interactions on mitochondrial apoptosis induction, a cytochrome c release assay is used that employs mouse liver mitochondria from Bak^−/− mice or Alb-cre^posBax^flox/−Bak^−/− mice, added recombinant BCL-2 family polypeptide, e.g., BAX, BAK, or BOK (50 nM) with or without increasing doses of SAHBs (50-500 nM), and an ELISA-based read-out of cytochrome c. Negative controls include recombinant protein alone, compounds alone, vehicle treatment, point mutant SAHBs, and blockade using anti-apoptotic proteins, such as BCL-XL ΔC.

monomeric BAX = monomeric BAX (Homo sapiens, UniProt Q07812); experiment: BAX oligomerization assay (size exclusion chromatography); format: biochemical; conditions: wild-type BAX, room temperature
monomeric BAX, sequence (Q07812 whole entry): as above
Description: In contrast to the stable inhibitory interactions of BIM BH3 with anti-apoptotic proteins, the BAX-activating interaction triggers a dynamic continuum of events that includes BAX conformational change and oligomerization. […] In monomeric BAX, the center of the loop weakly associates with residues Ile133 and Met 137 of the α6 helix (Suzuki & Tjandra, Cell 103 (4), 645-654 (2000)). Changes observed in the loop residues can readily be explained by the shift of the loop conformation into an open form upon BIM SAHB binding. Because loop displacement upon ligand engagement may initiate a conformational change of BAX, we investigated whether BIM SAHB binding could directly activate BAX in solution. We monitored both the conversion of BAX from monomer to oligomer by size-exclusion chromatography (SEC) and the exposure of its buried N-terminal residues using the 6A7 antibody, which selectively detects the conformational change associated with BAX activation (Hsu & Youle, The Journal of biological chemistry 272 (21), 13829-13834 (1997)). […] Thus, the transient stability of the BIM SAHB-BAX complex we observe by NMR correlates with the interaction-triggered BAX conformational change and oligomerization that we detect biochemically.
Oligomerization assay: BIM SAHB was added to a 200 μL solution (20 mM Hepes/KOH pH 7.2-7.4, 150 mM KCl) containing monomeric BAX (38 μM) at a ratio of 0.5:1, 1:1, 2:1 and 4:1 BIM SAHB:BAX. The mixtures and a sample of BAX monomer alone were incubated at 22° for 15 minutes and then subjected to analysis by size exclusion chromatography (SEC) using an SD75 column. […] Protein standards (GE Healthcare) were used to calibrate the molecular weights of gel filtration peaks. For time-dependent analysis, BIM SAHB was added to monomeric BAX at a ratio of 1:1, and the mixtures were analyzed by SEC after incubation for 30, 60, and 90 minutes at 22° C. As a baseline for comparison, Bax monomer alone was analyzed at time 0 and the above time points.

[6] = test system: Bax−/−Bak−/− mouse embryo fibroblasts reconstituted with wild type BAX; experiment: apoptosis of BAX-reconstituted DKO MEFs (annexin-V binding); format: cell-based
Description: as §1

BAX oligomerization (monomer to oligomer, SEC) (monomeric BAX)	Compound	apoptosis induction, annexin-V binding [2]	BAX-mediated cytochrome c release [5]	further results
abrogated	BIM SAHB R153D: BIM SAHB with reverse-polarity point mutation R153D at the BAX interaction surface (FIG. 13a) (EIWIAQELDRIGDEFNAYYARR; staple (positions not given here); also: hydrocarbon staple, positions not given here)	abolished	abrogated	liposomal release of entrapped FITC-dextran (BAX): abrogation of activity; apoptosis induction, annexin-V binding [6]: abolished
abrogated	D157R: BIM SAHB with reverse-polarity point mutation D157R (FIG. 13a) (EIWIAQELRRIGREFNAYYARR; staple (positions not given here); also: hydrocarbon staple, positions not given here)		abrogated	
abrogated	I155E: BIM SAHB with hydrophobic to charged point mutation I155E (FIG. 13a) (EIWIAQELRREGDEFNAYYARR; staple (positions not given here); also: hydrocarbon staple, positions not given here)		abrogated	

More lines, now with the values behind:

Compound	BAX oligomerization (monomer to oligomer, SEC) (monomeric BAX)	apoptosis induction, annexin-V binding [2]	BAX-mediated cytochrome c release [5]	further results
CN(C)CC[C@H](CSc1ccccc1)Nc1ccc(S(=O)(=O)NC(=O)c2ccc(N3CCN(Cc4ccccc4-c4ccc(Cl)cc4)CC3)cc2)cc1[N+](=O)[O-] [ABT-737, reference compound]				cell killing / sensitivity [1]: resistant
CN[C@@H]1C[C@H]2O[C@@](C)([C@@H]1OC)n1c3ccccc3c3c4c(c5c6ccccc6n2c5c31)C(=O)NC4 [staurosporine, reference compound]		impaired		
BID SAHB: hydrocarbon-stapled BID BH3 polypeptide (FIG. 9, SEQ ID NO:4) (ESQEDIIRNIARHLAQVGDEMDRSI; staple (positions not given here); also: hydrocarbon staple, positions not given here; listed as Homo sapiens)				potency in reactivating apoptosis relative to ABT-737 or BAD SAHB [3]: more potent; binding to BOK [4]: bound
